{
  "source": "patent US20230141777A1",
  "about": "“COMPOSITION WHICH IS FOR TREATING OR PREVENTING RENAL CELL CANCER AND CONTAINS D-ALLOSE AS ACTIVE INGREDIENT, AND METHOD FOR TREATING OR PREVENTING CANCER USING SAME” (NATIONAL UNIVERSITY CORPORATION KAGAWA UNIVERSITY, priority 2020, published 2023)",
  "key": {"[1]": {"tested_on": "human renal cell carcinoma cell line ACHN", "test": "Intracellular reactive oxygen species (ROS) production, DCF-DA fluorescence, ACHN", "assay_type": "cell-based", "settings": "50 mM D-allose, co-culture 1 hour, vs DMSO", "description": "(§1) After seeding human renal cell carcinoma cell line (Caki-1 or ACHN) at 5.0×10^5 in a 100 mm dish, culturing for 24 hours and then co-culturing with DMSO or D-allose (50 mM) for 1 hour, 10 μM 2,7-Dichlorofluorescin diacetate (DCF-DA; D6883, Sigma-Aldrich, USA) was added and the mixture was allowed to stand at 37° C. for 30 minutes. The cells were recovered with trypsin treatment and collected by centrifugal separation for 5 minutes at 3500×g, after which they were resuspended in ice-cold PBS and a CytoFLEX S (Beckman Coulter, CA, USA) was used to detect the DCF-DA fluorescence. Each experiment was conducted 3 times, and the data were analyzed using CytExpert software and recorded as the average value±SE (FIG. 8)."}, "[2]": {"tested_on": "TXNIP", "test": "TXNIP expression (Western blotting) in Caki-1", "assay_type": "cell-based, human", "settings": "Caki-1, 10, 25 or 50 mM D-allose, 48 hours", "description": "(§2) A human renal cell carcinoma cell line (Caki-1 or Caki-2) was seeded at 5.0×10^5 in a 100 mm dish and cultured for 24 hours, after which it was co-cultured with D-allose (10, 25 or 50 mM). After 48 hours, the cells were recovered and the protein was extracted, and the concentration of each protein was measured using a Bio-Rad Protein Assay Kit (Bio-Rad, Laboratories, Inc. USA). A protein sample ([…]) was electrophoresed on 10% Mini-PROTAN TGX Precast Gel (Bio-Rad) and a Trans-Blot Turbo transfer system (Bio-Rad) was used for transfer onto a PVDF Western Blotting Membrane. After blocking treatment for 1 hour (Superblock T20. Thermo, Rockford. Ill., USA), anti-TXNIP antibody (D5F3E, CST. USA. 1:1000) was used as primary antibody for reaction using an iBind Flex Western System (Thermo). The loading control used was β-actin (ab8227, abcam, CamBridge, UK, 1:1000)."}, "[3]": {"tested_on": "human renal cell carcinoma cell line Caki-1", "test": "Intracellular reactive oxygen species (ROS) production, DCF-DA fluorescence, Caki-1", "assay_type": "cell-based", "settings": "Caki-1, 50 mM D-allose, co-culture 1 hour, vs DMSO", "description": "as §1"}, "[4]": {"tested_on": "human renal cell carcinoma cell line Caki-1 xenotransplantation mouse model", "test": "Change in tumor volume and tumor histology in renal cell carcinoma xenotransplantation mouse model by oral administration of D-allose", "assay_type": "in vivo", "settings": "Caki-1 xenograft", "description": "(§3) The experiment was conducted using two different human renal cell carcinoma cell lines (Caki-1, ACHN). Each of the cells was cultured in a moist environment at 37° C., 5% CO2 using 10% fetal bovine serum and RPMI-1640 culture solution (2000 mg D-glucose/L) containing HEPES buffer and penicillin-streptomycin. The renal cell carcinoma xenotransplantation mouse model was prepared by adjusting cultured cells to a 1.0×10^5 cell/mL cell suspension with MEM culture solution, injecting 0.1 mL into the femoral subcutaneous tissue of Female athymic nude mice (BALB/c nu/nu, 6 weeks old), and confirming a tumor volume of 200 mm^3 or greater after 1 week, and it was used for the following experiment.\n(§4) A D-allose-containing solution was orally administered from day 1, where “day 0” was defined as the day when the tumor size of the renal cell carcinoma xenotransplantation mouse model prepared using Caki-1 as the human renal cell carcinoma cell line reached 200 mm^3 or greater.\n(§5) Either 0.2 mL physiological saline or 0.2 mL physiological saline dissolving 400 mg/kg D-allose was injected into the esophagus of mice divided into 2 groups (control group and D-allose group), through a Neraton catheter. The administration was carried out once a day for a total of 32 consecutive days. The mouse body weights and the long and short diameters of the tumors were measured twice a week. The tumor volumes were calculated as: tumor long diameter×short diameter×short diameter×0.5. The livers and kidneys were extracted with the tumors from the mice on the 32nd day after the start of oral administration and used for the subsequent experiment.\n(§6) The tumors, kidneys and livers were extracted from the renal cell carcinoma xenotransplantation mouse models (control group and D-allose-administered group, 32nd day after start of administration), and the tissues were fixed with 4% paraformaldehyde/phosphate buffer, embedded in paraffin and sliced to thicknesses of 4 μm. The thin slices were stained with hematoxylin-eosin staining (HE staining) and observed (FIG. 3, FIG. 5 and FIG. 6)."}, "[5]": {"test": "Body weight and HE staining of kidney and liver tissue in renal cell carcinoma xenotransplantation mouse model after oral D-allose", "assay_type": "in vivo", "description": "as §4, §5, §6"}, "[6]": {"tested_on": "TXNIP", "test": "TXNIP expression (Western blotting) in Caki-2", "assay_type": "cell-based, human", "settings": "Caki-2, 10, 25 or 50 mM D-allose, 48 hours", "description": "as §2"}, "[7]": {"tested_on": "human colorectal cancer cell line (DLD-1) xenotransplantation mice", "test": "Change in tumor volume in colorectal cancer xenotransplantation mouse model by administration of D-allose", "assay_type": "in vivo", "settings": "DLD-1 xenograft, Mann-Whitney U test", "description": "A cell suspension containing 2.0×10^6 cells of a human colorectal cancer cell line (DLD-1) was injected into femoral subcutaneous tissue of Male athymic nude mice (BALB/c Nude (nu/nu)mice), and adjustment of D-allose or D-glucose was initiated with “day 0” defined as the day when the tumor volume reached about 100 to 150 mm^3.\nD-allose or D-glucose was intraperitoneally administered at 400 mg/kg to colorectal cancer xenotransplantation mice whose tumor volumes had reached about 100 mm^3. Physiological saline was used as the solvent for adjustment to 0.2 ml, and administration was once per day for a total of 30 days. The tumor volumes were measured every 6 days.\nD-allose or D-glucose was orally administered at 100 mg/kg to colorectal cancer xenotransplantation mice whose tumor volumes had reached about 100 to 150 mm^3. Distilled water was used as the solvent for adjustment to 0.2 ml, and administration was once per day for a total of 30 days. The tumor volumes were measured every 6 days."}, "[8]": {"test": "Change in tumor D-allose concentration after intraperitoneal or oral administration of D-allose to renal cell carcinoma xenotransplantation mouse model (HPLC)", "assay_type": "in vivo", "settings": "for D-allose detected in tumor: by 1 hour after oral administration", "description": "as §3\nIn a xenotransplantation mouse model of two different human renal cell carcinoma cell lines (Caki-1, ACHN), tumors were enucleated from the mice at the 1st hour, 2nd hour and 4th hour before and after administration of D-allose by intraperitoneal administration (FIGS. 1(A) and (B)) or oral administration (FIGS. 1(C) and (D)) of a solution of rare sugar D-allose prepared using physiological saline to 400 mg/kg/0.2 mL. The monosaccharides in the supernatant obtained by ultrasonic disruption of the tumors in 1 mL of PBS and centrifugal separation at 3000 rpm for 5 minutes were labeled with ABEE (4-aminobenzoic acid ethyl ester) and the D-allose was quantitatively analyzed by HPLC (high performance liquid chromatography) (FIG. 1)."}},
  "note": "Entries after “also recorded” stand apart in the source; their conditions may differ.",
  "data": [
    {"molecule": "O=C[C@H](O)[C@H](O)[C@H](O)[C@H](O)CO", "note": "[D-allose]", "values": [
      {"measurement": "intracellular ROS", "setting": "[1]", "result": "significantly increased"},
      {"measurement": "TXNIP expression", "setting": "[2]", "result": "increases TXNIP expression in a D-allose dose-dependent manner"},
      {"measurement": "intracellular ROS", "setting": "[3]", "result": "significantly increased"},
      {"measurement": "tumor volume at the 32nd day compared to tumor volume before D-allose administration", "setting": "[4]; oral 400 mg/kg once a day for 32 days", "result": "significantly reduced"},
      {"measurement": "tumor volume compared to the control group", "setting": "[4]; oral 400 mg/kg once a day, after the 8th day, Mann-Whitney U test", "result": "significantly reduced"},
      {"measurement": "nuclear fission in HE stained tumor tissue", "setting": "[4]; oral 400 mg/kg/day, 32nd day, evaluation by a pathology specialist", "result": "reduced nuclear fission"},
      {"measurement": "body weight compared to the control group", "setting": "[5]; oral 400 mg/kg once a day, 32-day observation period", "result": "no significant difference"},
      {"measurement": "HE staining images of kidney tissue compared to the control group", "setting": "[5]; oral 400 mg/kg/day, 32nd day", "result": "No particular difference"},
      {"measurement": "HE staining images of liver tissue compared to the control group", "setting": "[5]; oral 400 mg/kg/day, 32nd day", "result": "No particular difference"},
      {"measurement": "TXNIP expression", "setting": "[6]", "result": "increases TXNIP expression in a D-allose dose-dependent manner"},
      {"measurement": "tumor volume compared to the D-glucose group", "setting": "[7]; intraperitoneal 400 mg/kg once per day for 30 days, after the 18th day", "result": "significantly smaller"},
      {"measurement": "tumor volume compared to the D-glucose group", "setting": "[7]; oral 100 mg/kg once per day for 30 days, 100 mg/kg", "result": "no significant difference; also recorded: has not exhibited the anticancer effect"},
      {"measurement": "tumor D-allose concentration with oral administration relative to intraperitoneal administration", "setting": "[8]; 400 mg/kg, Caki-1 and ACHN tumors (not distinguished)", "result": "about 80%"},
      {"measurement": "D-allose detected in tumor", "setting": "[8]; ACHN tumors, 400 mg/kg", "result": "detected in all of the tumors"},
      {"measurement": "D-allose detected in tumor", "setting": "[8]; Caki-1 tumors, 400 mg/kg", "result": "detected in all of the tumors"},
      {"measurement": "time of maximum intratumoral D-allose concentration", "setting": "[8]; Caki-1 tumors, oral administration, 400 mg/kg", "result": 1, "unit": "h"},
      {"measurement": "uptake into renal cell carcinoma compared to non-transintestinal (intraperitoneal) administration", "setting": "[8]; transintestinal administration, summary statement", "result": "equivalent rate or with approximately about 20% reduction"}
    ]}
  ]
}
